Several values for one entry are separate records, joined by “and”; a condition that tells them apart may be missing. Identical values can stand only once.

Here are results for three compounds from PMC4774911, “Biochemical Screening of Five Protein Kinases from Plasmodium falciparum against 14,000 Cell-Active Compounds” (PLoS ONE, 2016).

Experiment [1] deals with T1, Plasmodium falciparum calcium-dependent protein kinase 1 (CDPK1) (Plasmodium falciparum, UniProt P62344).
T1 construct: 6-Histidine (N); made in house
T1 sequence (P62344 whole entry): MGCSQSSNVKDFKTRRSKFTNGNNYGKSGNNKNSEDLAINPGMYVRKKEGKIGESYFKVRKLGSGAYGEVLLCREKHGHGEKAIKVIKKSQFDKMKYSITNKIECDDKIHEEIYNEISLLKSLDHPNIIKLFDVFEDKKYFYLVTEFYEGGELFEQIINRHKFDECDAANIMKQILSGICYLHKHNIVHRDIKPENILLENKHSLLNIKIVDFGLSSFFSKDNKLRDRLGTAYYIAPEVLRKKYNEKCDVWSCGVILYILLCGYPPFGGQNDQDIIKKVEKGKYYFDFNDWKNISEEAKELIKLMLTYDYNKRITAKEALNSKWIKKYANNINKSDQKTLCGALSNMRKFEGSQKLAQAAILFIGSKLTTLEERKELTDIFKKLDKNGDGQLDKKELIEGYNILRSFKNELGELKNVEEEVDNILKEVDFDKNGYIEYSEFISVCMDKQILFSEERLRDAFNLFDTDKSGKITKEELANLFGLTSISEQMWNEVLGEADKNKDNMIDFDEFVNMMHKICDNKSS
The experiment is described as follows: CDPK1 Kinase-Glo ATP-consumption screen and dose-response. It is filed as biochemical. To be noted: hits below 1 uM; read-out: CDPK1 IC50. Put shortly: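 Single-point testing used 1 μM final compound, then dose-response, against CDPK4 and CDPK1 with Syntide-2 (40 μM) as substrate. After 90 min, reactions were halted by 5 mM EGTA, and kinase activity was inferred from depleted ATP via Kinase-Glo luminescence.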
(In general: Kinase-Glo reads ATP consumption through a luciferase reaction.)

The next experiment has as its target T2, GAK (Homo sapiens, UniProt O14976).
T2 sequence (O14976 1-1311): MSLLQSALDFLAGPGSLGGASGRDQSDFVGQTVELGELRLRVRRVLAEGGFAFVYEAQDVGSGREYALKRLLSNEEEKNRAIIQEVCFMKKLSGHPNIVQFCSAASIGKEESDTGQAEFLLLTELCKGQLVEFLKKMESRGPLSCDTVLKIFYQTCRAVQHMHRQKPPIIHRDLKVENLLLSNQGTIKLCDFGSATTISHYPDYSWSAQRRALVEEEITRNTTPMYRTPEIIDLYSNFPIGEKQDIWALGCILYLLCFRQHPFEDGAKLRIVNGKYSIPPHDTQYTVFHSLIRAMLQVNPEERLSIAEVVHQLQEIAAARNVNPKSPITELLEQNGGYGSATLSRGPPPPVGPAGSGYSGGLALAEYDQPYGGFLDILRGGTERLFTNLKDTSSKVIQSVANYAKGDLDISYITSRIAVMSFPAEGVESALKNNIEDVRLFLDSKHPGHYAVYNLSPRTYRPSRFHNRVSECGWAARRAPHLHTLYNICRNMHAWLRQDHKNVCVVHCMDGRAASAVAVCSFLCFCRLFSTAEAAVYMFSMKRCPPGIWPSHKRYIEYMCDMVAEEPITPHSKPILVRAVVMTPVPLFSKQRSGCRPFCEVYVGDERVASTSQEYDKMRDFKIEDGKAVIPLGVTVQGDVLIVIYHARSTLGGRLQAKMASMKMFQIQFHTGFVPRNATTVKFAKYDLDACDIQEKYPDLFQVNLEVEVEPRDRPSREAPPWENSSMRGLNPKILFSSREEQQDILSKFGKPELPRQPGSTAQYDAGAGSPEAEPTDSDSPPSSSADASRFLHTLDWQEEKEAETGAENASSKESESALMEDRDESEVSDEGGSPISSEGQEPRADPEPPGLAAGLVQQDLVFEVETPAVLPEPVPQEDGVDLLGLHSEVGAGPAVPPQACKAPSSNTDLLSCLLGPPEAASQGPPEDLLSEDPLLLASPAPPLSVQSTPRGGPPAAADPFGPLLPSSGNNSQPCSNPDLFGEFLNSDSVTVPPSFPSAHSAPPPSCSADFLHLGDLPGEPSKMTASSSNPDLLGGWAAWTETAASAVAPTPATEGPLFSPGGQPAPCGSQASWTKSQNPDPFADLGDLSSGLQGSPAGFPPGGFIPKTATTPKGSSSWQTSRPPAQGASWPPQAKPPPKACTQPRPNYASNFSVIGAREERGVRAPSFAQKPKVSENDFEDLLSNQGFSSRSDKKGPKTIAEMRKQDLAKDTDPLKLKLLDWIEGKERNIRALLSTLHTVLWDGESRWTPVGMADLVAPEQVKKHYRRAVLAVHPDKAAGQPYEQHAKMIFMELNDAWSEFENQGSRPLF
The experiment is described as follows: biochemical. Further details: endogenous in cells; host or cells: K562 cell extract; species or system K562 (extract); replicate k of n = 2 (each experiment ID is one independent experiment; two experiment IDs per compound). To be noted: read-out: KDapp.

For the next experiment, the target named is BRAF (Homo sapiens, UniProt P15056). Nature of the experiment: biochemical. To be noted: read-out: KDapp. Set-up: endogenous in cells; host or cells: K562 cell extract; species or system K562 (extract); replicate k of n = 2 (each experiment ID is one independent experiment; two experiment IDs per compound).
Chain of BRAF (P15056 whole entry): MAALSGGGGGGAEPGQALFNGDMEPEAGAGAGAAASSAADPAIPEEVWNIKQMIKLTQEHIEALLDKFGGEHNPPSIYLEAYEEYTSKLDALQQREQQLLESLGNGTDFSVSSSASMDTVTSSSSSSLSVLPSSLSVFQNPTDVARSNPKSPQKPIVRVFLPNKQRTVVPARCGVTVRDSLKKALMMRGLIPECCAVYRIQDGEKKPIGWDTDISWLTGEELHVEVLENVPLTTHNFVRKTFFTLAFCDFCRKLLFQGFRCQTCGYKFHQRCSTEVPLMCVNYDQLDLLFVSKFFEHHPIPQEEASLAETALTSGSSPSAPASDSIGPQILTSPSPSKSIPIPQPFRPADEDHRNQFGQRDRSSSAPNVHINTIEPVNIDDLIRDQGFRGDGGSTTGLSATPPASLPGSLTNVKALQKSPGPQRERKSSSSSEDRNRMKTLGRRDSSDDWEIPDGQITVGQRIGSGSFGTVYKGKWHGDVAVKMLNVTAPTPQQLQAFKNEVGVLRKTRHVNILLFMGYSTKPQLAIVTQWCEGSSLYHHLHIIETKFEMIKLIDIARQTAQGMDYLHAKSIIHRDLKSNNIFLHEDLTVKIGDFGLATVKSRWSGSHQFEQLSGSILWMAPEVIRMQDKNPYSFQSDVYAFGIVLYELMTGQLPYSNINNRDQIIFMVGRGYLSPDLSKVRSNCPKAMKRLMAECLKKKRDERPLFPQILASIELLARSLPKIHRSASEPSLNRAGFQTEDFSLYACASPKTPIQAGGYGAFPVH
The target of another experiment is CRKRS (Homo sapiens, UniProt Q9NYV4). Nature of the experiment: biochemical. Set-up: endogenous in cells; host or cells: K562 cell extract; species or system K562 (extract); replicate k of n = 2 (each experiment ID is one independent experiment; two experiment IDs per compound). To be noted: read-out: KDapp.
Chain of CRKRS (Q9NYV4 whole entry): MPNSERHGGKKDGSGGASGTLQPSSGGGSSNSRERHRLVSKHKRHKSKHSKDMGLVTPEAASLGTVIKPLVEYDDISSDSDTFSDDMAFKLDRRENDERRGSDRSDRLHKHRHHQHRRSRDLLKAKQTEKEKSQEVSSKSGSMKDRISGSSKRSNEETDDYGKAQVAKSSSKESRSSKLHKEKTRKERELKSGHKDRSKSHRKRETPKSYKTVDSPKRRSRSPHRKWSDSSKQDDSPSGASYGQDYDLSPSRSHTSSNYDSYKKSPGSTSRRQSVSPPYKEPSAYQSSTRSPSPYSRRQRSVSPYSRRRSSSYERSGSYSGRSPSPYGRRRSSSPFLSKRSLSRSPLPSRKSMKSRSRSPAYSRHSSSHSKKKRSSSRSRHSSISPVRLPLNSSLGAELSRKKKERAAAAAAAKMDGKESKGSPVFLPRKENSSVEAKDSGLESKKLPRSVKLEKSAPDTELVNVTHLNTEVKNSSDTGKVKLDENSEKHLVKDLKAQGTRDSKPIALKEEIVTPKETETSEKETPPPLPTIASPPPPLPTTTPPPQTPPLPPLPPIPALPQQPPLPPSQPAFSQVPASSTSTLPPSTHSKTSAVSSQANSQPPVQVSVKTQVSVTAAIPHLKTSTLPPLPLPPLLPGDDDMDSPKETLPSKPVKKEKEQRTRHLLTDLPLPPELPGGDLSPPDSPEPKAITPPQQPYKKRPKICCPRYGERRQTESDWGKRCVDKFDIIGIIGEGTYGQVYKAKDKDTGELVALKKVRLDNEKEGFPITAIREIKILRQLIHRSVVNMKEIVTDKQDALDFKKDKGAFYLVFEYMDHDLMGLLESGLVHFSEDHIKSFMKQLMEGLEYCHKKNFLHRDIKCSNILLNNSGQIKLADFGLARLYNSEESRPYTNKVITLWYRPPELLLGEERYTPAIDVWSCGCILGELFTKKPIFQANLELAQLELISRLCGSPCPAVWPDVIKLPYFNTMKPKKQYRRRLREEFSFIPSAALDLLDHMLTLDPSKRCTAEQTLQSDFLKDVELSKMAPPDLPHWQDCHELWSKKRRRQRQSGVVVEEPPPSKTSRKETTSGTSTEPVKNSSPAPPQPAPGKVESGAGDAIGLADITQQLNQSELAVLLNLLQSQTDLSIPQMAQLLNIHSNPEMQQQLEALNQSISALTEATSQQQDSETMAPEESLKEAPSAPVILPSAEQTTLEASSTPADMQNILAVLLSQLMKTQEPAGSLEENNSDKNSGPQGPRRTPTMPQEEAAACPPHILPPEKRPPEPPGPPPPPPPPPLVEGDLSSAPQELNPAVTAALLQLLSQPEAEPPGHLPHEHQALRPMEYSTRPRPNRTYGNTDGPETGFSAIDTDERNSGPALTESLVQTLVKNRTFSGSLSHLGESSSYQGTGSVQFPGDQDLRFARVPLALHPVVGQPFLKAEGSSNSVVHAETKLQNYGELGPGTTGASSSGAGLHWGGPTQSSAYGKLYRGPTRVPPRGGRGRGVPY
A further experiment concerns the target AURKB (Homo sapiens, UniProt Q96GD4). Nature of the experiment: biochemical. Set-up: endogenous in cells; host or cells: K562 cell extract; species or system K562 (extract); replicate k of n = 2 (each experiment ID is one independent experiment; two experiment IDs per compound). To be noted: read-out: KDapp.
In a further experiment the target is MAP3K11 (Homo sapiens, UniProt Q16584). The experiment is described as follows: biochemical.
Chain of MAP3K11 (Q16584 whole entry): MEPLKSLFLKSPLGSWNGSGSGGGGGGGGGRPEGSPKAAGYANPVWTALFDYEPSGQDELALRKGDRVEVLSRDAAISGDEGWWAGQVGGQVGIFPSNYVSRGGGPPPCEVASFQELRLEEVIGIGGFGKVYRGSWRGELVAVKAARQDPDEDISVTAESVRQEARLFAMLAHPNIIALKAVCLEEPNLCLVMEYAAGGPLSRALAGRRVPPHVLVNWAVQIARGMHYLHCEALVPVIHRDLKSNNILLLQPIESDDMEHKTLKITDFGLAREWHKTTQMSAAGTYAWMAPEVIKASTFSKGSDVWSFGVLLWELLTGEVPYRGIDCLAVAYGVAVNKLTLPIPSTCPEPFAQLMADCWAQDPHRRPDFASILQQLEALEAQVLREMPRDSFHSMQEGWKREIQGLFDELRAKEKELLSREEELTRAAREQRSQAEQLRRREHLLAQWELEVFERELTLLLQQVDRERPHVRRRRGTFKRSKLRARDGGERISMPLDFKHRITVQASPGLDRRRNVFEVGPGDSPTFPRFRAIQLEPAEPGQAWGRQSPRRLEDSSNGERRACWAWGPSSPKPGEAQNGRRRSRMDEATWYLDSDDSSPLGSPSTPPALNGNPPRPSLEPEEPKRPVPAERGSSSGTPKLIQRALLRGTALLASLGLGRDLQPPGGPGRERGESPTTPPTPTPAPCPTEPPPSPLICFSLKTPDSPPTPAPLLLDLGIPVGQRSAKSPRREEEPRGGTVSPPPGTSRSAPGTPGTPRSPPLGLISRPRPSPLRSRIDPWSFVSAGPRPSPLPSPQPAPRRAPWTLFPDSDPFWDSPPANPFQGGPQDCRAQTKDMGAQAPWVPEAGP
Experiment [2] deals with T3, Plasmodium falciparum protein kinase 6 (PK6) (Plasmodium falciparum, UniProt Q8IDW1).
T3 construct: 6-Histidine (N); made in house
T3 sequence (Q8IDW1 1-305): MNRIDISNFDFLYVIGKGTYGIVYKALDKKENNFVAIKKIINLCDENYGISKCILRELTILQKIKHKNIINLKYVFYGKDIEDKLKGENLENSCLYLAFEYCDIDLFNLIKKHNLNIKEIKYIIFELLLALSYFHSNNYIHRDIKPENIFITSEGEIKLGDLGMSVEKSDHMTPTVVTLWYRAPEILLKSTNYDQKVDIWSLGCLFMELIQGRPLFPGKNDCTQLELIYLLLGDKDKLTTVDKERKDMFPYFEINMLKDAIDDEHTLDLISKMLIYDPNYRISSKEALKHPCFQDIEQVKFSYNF
The experiment is described as follows: biochemical. To be noted: hits below 1 uM; read-out: PK6 IC50.

Another experiment concerns the target STK17B (Homo sapiens, UniProt O94768). The experiment is described as follows: biochemical.

Chain of AURKB (Q96GD4 whole entry): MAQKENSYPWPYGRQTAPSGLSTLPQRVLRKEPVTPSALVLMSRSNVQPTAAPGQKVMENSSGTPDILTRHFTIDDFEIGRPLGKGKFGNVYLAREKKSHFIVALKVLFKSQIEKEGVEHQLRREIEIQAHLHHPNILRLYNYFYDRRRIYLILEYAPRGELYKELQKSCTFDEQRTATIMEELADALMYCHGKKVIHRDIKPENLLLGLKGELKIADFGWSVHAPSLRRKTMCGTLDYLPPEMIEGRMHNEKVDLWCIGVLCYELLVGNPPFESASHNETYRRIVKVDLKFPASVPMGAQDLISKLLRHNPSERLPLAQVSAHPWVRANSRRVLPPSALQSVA
Chain of STK17B (O94768 whole entry): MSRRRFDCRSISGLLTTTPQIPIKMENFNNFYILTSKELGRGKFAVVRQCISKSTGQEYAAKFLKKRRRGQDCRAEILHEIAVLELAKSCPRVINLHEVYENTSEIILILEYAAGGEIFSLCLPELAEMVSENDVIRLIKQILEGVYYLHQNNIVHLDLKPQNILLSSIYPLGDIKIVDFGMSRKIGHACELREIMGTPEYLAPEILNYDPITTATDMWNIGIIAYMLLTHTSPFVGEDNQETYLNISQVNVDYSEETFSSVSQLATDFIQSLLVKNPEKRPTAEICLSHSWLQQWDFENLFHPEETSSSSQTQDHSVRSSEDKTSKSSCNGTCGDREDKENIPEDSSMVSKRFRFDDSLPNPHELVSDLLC

In general, IC50 refers to the point on the concentration scale where inhibition reaches its midpoint. For `CN1CCN(c2ccc(Nc3ncc(C#N)c(Nc4ccccc4C(N)=O)n3)cc2)CC1.Cl` [TCMDC-134116], the figures for the IC50 (in experiment [1]; against MAP3K11; in experiment [2]) were 0.012 µM, 0.089 µM and 0.089 µM, respectively. Besides, the Kd on GAK is 0.0323 µM and 0.0394 µM; at BRAF, 1.57 µM; at CRKRS, 0.507 µM; on AURKB, 0.0143 µM and 0.0228 µM.
Regarding `Cl.NCC1(c2nc(-c3ccc(Cl)c(O)c3)c(-c3ccncc3)[nH]2)CCCCC1` [TCMDC-141154], the IC50 in experiment [1] was 0.014 µM; on STK17B, greater than 20 µM. For the same compound, at BRAF, the Kd was 0.861 µM and 0.705 µM.
As to `CN(C)CC(O)COc1ccc(Nc2ncc([N+](=O)[O-])c(Nc3ccccc3O)n2)cc1.O=C(O)C(F)(F)F` (stereo not shown) [TCMDC-141399], the Kd was 0.591 µM and 0.907 µM at GAK; 1.64 µM on CRKRS; 1.5 µM at AURKB. Also, the IC50 against MAP3K11 was 1.4 µM and 0.63 µM; on STK17B, greater than 20 µM; in experiment [2] it was 0.067 µM.
